Experimental data: US10821115B2, “Compounds that inhibit Mcl-1 protein” (priority 2017, dated 2020)

Assays:
[1] = system: human multiple myeloma cell line, OPM-2; assay: Cell viability assay (OPM-2 10 FBS), CellTiter-Glo; type: cell-based; conditions: Homo sapiens, OPM-2, 16 h, read-out: OPM-2 10% FBS IC50 IP, OPM-2 cells, 10% FBS, 16 h, CellTiter-Glo
Outline: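 IC50 values come from 4-parameter logistic fits of luminescence signals reflecting cell viability. Treatment lasted 16 h at 37 °C in complete medium with 10% FBS, starting from 3000 cells/well.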

[2] = molecular target: recombinant human Mcl-1 (residues 171-327) / Bim interaction (Homo sapiens (Human), UniProt Q07820); assay: biochemical; type: binding; conditions: TR-FRET, Mcl-1(171-327) / biotin-Bim (51-76); read-out: Mcl-1 HTRF IC50
Chain of recombinant human Mcl-1 (residues 171-327) / Bim interaction (Q07820 171-327): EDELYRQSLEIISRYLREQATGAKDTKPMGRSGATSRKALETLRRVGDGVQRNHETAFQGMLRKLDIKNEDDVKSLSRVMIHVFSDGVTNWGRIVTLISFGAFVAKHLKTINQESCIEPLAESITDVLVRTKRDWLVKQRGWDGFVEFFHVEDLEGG

SMILES	IC50 [1] [nM]	IC50 [2] [nM]
CO[C@@]1(Cc2nccs2)/C=C/C[C@H](C)[C@@H](C)S(=O)(=O)NC(=O)c2ccc3c(c2)N(C[C@@H]2CC[C@H]21)C[C@@]1(CCCc2cc(Cl)ccc21)CO3 [Example 100525, (1S,3′R,6′R,7′S,8′E,11′S,12′R)-6-chloro-7′-methoxy-11′,12′-dimethyl-7′-(1,3-thiazol-2-ylmethyl)-3,4-dihydro-2H,15′H-spiro[naphthalene-1,22′-[20]oxa[13]thia[1,14]diazatetracyclo [14.7.2.0~3,6~.0~19,24~]pentacosa[8,16,18,24]tetraen]-15′-one 13′,13′-dioxide]	1430	3.31
Cc1nccnc1C[C@@]1(O)/C=C/C[C@H](C)[C@@H](C)S(=O)(=O)NC(=O)c2ccc3c(c2)N(C[C@@H]2CC[C@H]21)C[C@@]1(CCCc2cc(Cl)ccc21)CO3 [Example 100526, (1S,3′R,6′R,7′R,8′E,11′S,12′R)-6-chloro-7′-hydroxy-11′,12′-dimethyl-7′-((3-methyl-2-pyrazinyl)methyl)-3,4-dihydro-2H,15′H-spiro[naphthalene-1,22′-[20]oxa[13]thia[1,14]diazatetracyclo [14.7.2.0~3,6~.0~19,24~]pentacosa[8,16,18,24]tetraen]-15′-one 13′,13′-dioxide]	826	0.387
CO[C@@]1(Cc2nc(C)co2)/C=C/C[C@H](C)[C@@H](C)S(=O)(=O)NC(=O)c2ccc3c(c2)N(C[C@@H]2CC[C@H]21)C[C@@]1(CCCc2cc(Cl)ccc21)CO3 [Example 100527, (1S,3′R,6′R,7′S,8′E,11′S,12′R)-6-chloro-7′-methoxy-11′,12′-dimethyl-7′-((4-methyl-1,3-oxazol-2-yl)methyl)-3,4-dihydro-2H,15′H-spiro[naphthalene-1,22′-[20]oxa[13]thia[1,14]diazatetracyclo [14.7.2.0~3,6~.0~19,24~]pentacosa[8,16,18,24]tetraen]-15′-one 13′,13′-dioxide]	3570	3.6
COC(=O)[C@@H](C)NC(=O)C[C@]1(OC)/C=C/C[C@H](C)[C@@H](C)S(=O)(=O)NC(=O)c2ccc3c(c2)N(C[C@@H]2CC[C@H]21)C[C@@]1(CCCc2cc(Cl)ccc21)CO3 [Example 100528, methyl N-(((1S,3′R,6′R,7′S,8′E,11′S,12′R)-6-chloro-7′-methoxy-11′,12′-dimethyl-13′,13′-dioxido-15′-oxo-3,4-dihydro-2H-spiro[naphthalene-1,22′-[20]oxa[13]thia[1,14]diazatetracyclo [14.7.2.0~3,6~.0~19,24~]pentacosa[8,16,18,24]tetraen]-7′-yl)acetyl)-D-alaninate]	257	0.138
CO[C@@]1(Cc2ncc(C)o2)/C=C/C[C@H](C)[C@@H](C)S(=O)(=O)NC(=O)c2ccc3c(c2)N(C[C@@H]2CC[C@H]21)C[C@@]1(CCCc2cc(Cl)ccc21)CO3 [Example 100529, (1S,3′R,6′R,7′S,8′E,11′S,12′R)-6-chloro-7′-methoxy-11′,12′-dimethyl-7′-((5-methyl-1,3-oxazol-2-yl)methyl)-3,4-dihydro-2H,15′H-spiro[naphthalene-1,22′-[20]oxa[13]thia[1,14]diazatetracyclo [14.7.2.0~3,6~.0~19,24~]pentacosa[8,16,18,24]tetraen]-15′-one 13′,13′-dioxide]	245	0.287
Cc1ccnc(C[C@@]2(O)/C=C/C[C@H](C)[C@@H](C)S(=O)(=O)NC(=O)c3ccc4c(c3)N(C[C@@H]3CC[C@H]32)C[C@@]2(CCCc3cc(Cl)ccc32)CO4)c1 [Example 100532, (1S,3′R,6′R,7′R,8′E,11′S,12′R)-6-chloro-7′-hydroxy-11′,12′-dimethyl-7′-((4-methyl-2-pyridinyl)methyl)-3,4-dihydro-2H,15′H-spiro[naphthalene-1,22′-[20]oxa[13]thia[1,14]diazatetracyclo [14.7.2.0~3,6~.0~19,24~]pentacosa[8,16,18,24]tetraen]-15′-one 13′,13′-dioxide]	8640	0.053
Cc1ccnc(C[C@]2(O)/C=C/C[C@H](C)[C@@H](C)S(=O)(=O)NC(=O)c3ccc4c(c3)N(C[C@@H]3CC[C@H]32)C[C@@]2(CCCc3cc(Cl)ccc32)CO4)c1 [Example 100533, (1S,3′R,6′R,7′S,8′E,11′S,12′R)-6-chloro-7′-hydroxy-11′,12′-dimethyl-7′-((4-methyl-2-pyridinyl)methyl)-3,4-dihydro-2H,15′H-spiro[naphthalene-1,22′-[20]oxa[13]thia[1,14]diazatetracyclo [14.7.2.0~3,6~.0~19,24~]pentacosa[8,16,18,24]tetraen]-15′-one 13′,13′-dioxide]	3990	8.56
Cc1cc(C[C@@]2(O)/C=C/C[C@H](C)[C@@H](C)S(=O)(=O)NC(=O)c3ccc4c(c3)N(C[C@@H]3CC[C@H]32)C[C@@]2(CCCc3cc(Cl)ccc32)CO4)no1 [Example 100540, (1S,3′R,6′R,7′R,8′E,11′S,12′R)-6-chloro-7′-hydroxy-11′,12′-dimethyl-7′-((5-methyl-1,2-oxazol-3-yl)methyl)-3,4-dihydro-2H,15′H-spiro[naphthalene-1,22′-[20]oxa[13]thia[1,14]diazatetracyclo [14.7.2.0~3,6~.0~19,24~]pentacosa[8,16,18,24]tetraen]-15′-one 13′,13′-dioxide]	320	0.275
Cc1cc(C[C@]2(O)/C=C/C[C@H](C)[C@@H](C)S(=O)(=O)NC(=O)c3ccc4c(c3)N(C[C@@H]3CC[C@H]32)C[C@@]2(CCCc3cc(Cl)ccc32)CO4)no1 [Example 100541, (1S,3′R,6′R,7′S,8′E,11′S,12′R)-6-chloro-7′-hydroxy-11′,12′-dimethyl-7′-((5-methyl-1,2-oxazol-3-yl)methyl)-3,4-dihydro-2H,15′H-spiro[naphthalene-1,22′-[20]oxa[13]thia[1,14]diazatetracyclo [14.7.2.0~3,6~.0~19,24~]pentacosa[8,16,18,24]tetraen]-15′-one 13′,13′-dioxide]	826	0.76
CO[C@@]1(Cc2ncccc2C)/C=C/C[C@H](C)[C@@H](C)S(=O)(=O)NC(=O)c2ccc3c(c2)N(C[C@@H]2CC[C@H]21)C[C@@]1(CCCc2cc(Cl)ccc21)CO3 [Example 100542, (1S,3′R,6′R,7′S,8′E,11′S,12′R)-6-chloro-7′-methoxy-11′,12′-dimethyl-7′-((3-methyl-2-pyridinyl)methyl)-3,4-dihydro-2H,15′H-spiro[naphthalene-1,22′-[20]oxa[13]thia[1,14]diazatetracyclo [14.7.2.0~3,6~.0~19,24~]pentacosa[8,16,18,24]tetraen]-15′-one 13′,13′-dioxide]	902	0.229
CO[C@@]1(CC2=NC(C)(C)C(=O)O2)/C=C/C[C@H](C)[C@@H](C)S(=O)(=O)NC(=O)c2ccc3c(c2)N(C[C@@H]2CC[C@H]21)C[C@@]1(CCCc2cc(Cl)ccc21)CO3 [Example 100547, (1S,3′R,6′R,7′S,8′E,11′S,12′R)-6-chloro-7′-((4,4-dimethyl-5-oxo-4,5-dihydro-1,3-oxazol-2-yl)methyl)-7′-methoxy-11′,12′-dimethyl-3,4-dihydro-2H,15′H-spiro[naphthalene-1,22′-[20]oxa[13]thia[1,14]diazatetracyclo [14.7.2.0~3,6~.0~19,24~]pentacosa[8,16,18,24]tetraen]-15′-one 13′,13′-dioxide]	1860	0.031
CO[C@]1(Cc2cc(C)on2)/C=C/C[C@H](C)[C@@H](C)S(=O)(=O)NC(=O)c2ccc3c(c2)N(C[C@@H]2CC[C@H]21)C[C@@]1(CCCc2cc(Cl)ccc21)CO3 [Example 100548, (1S,3′R,6′R,7′R,8′E,11′S,12′R)-6-chloro-7′-methoxy-11′,12′-dimethyl-7′-((5-methyl-1,2-oxazol-3-yl)methyl)-3,4-dihydro-2H,15′H-spiro[naphthalene-1,22′-[20]oxa[13]thia[1,14]diazatetracyclo [14.7.2.0~3,6~.0~19,24~]pentacosa[8,16,18,24]tetraen]-15′-one 13′,13′-dioxide]	8410	0.064
CO[C@@]1(CC2=NCC(=O)O2)/C=C/C[C@H](C)[C@@H](C)S(=O)(=O)NC(=O)c2ccc3c(c2)N(C[C@@H]2CC[C@H]21)C[C@@]1(CCCc2cc(Cl)ccc21)CO3 [Example 100549, (1S,3′R,6′R,7′S,8′E,11′S,12′R)-6-chloro-7′-methoxy-11′,12′-dimethyl-7′-((5-oxo-4,5-dihydro-1,3-oxazol-2-yl)methyl)-3,4-dihydro-2H,15′H-spiro[naphthalene-1,22′-[20]oxa[13]thia[1,14]diazatetracyclo [14.7.2.0~3,6~.0~19,24~]pentacosa[8,16,18,24]tetraen]-15′-one 13′,13′-dioxide]	545	2.57
CO[C@@]1(Cc2cc(C)on2)/C=C/C[C@H](C)[C@@H](C)S(=O)(=O)NC(=O)c2ccc3c(c2)N(C[C@@H]2CC[C@H]21)C[C@@]1(CCCc2cc(Cl)ccc21)CO3 [Example 100552, (1S,3′R,6′R,7′S,8′E,11′S,12′R)-6-chloro-7′-methoxy-11′,12′-dimethyl-7′-((5-methyl-1,2-oxazol-3-yl)methyl)-3,4-dihydro-2H,15′H-spiro[naphthalene-1,22′-[20]oxa[13]thia[1,14]diazatetracyclo [14.7.2.0~3,6~.0~19,24~]pentacosa[8,16,18,24]tetraen]-15′-one 13′,13′-dioxide]	957	0.065
CO[C@@]1(c2cncc(CN(C)C)c2)/C=C/C[C@H](C)[C@@H](C)S(=O)(=O)NC(=O)c2ccc3c(c2)N(C[C@@H]2CC[C@H]21)C[C@@]1(CCCc2cc(Cl)ccc21)CO3 [Example 100554, (1S,3′R,6′R,7′S,8′E,11′S,12′R)-6-chloro-7′-(5-((dimethylamino)methyl)-3-pyridinyl)-7′-methoxy-11′,12′-dimethyl-3,4-dihydro-2H,15′H-spiro[naphthalene-1,22′-[20]oxa[13]thia[1,14]diazatetracyclo [14.7.2.0~3,6~.0~19,24~]pentacosa[8,16,18,24]tetraen]-15′-one 13′,13′-dioxide]	519	0.231
